Experimental data from ChEMBL document CHEMBL5550153, “Semisynthesis and biological evaluation of novel honokiol thioethers against colon cancer cells HCT116 via inhibiting the transcription and expression of YAP protein” (Bioorg Med Chem, 2024).
Active and inactive are the calls of the source. No cut-off for these calls is given here.

Experiments:
MGC-803 = assay: Antiproliferative activity against human MGC-803 cells assessed as inhibition of cell growth incubated for 48 hrs by MTT assay; format: functional, cell-based; conditions: MGC-803, 48 h
HCT-116 [1] = assay: Antiproliferative activity against human HCT-116 cells assessed as inhibition of cell growth incubated for 48 hrs by MTT assay; format: functional, cell-based; conditions: HCT-116, 48 h
KYSE-450 = assay: Antiproliferative activity against human KYSE-450 cells assessed as inhibition of cell growth incubated for 48 hrs by MTT assay; format: functional, cell-based; conditions: KYSE-450, 48 h
HCT-116 [2] = assay: Downregulation of YAP protein expression in human HCT-116 cells at 2 to 6 micromol/L measured after 48 hrs by Western blot analysis; format: functional, cell-based; conditions: dose 2-6 µmol/L
HCT-116 [3] = assay: Downregulation of TAZ protein expression in human HCT-116 cells at 2 to 6 micromol/L measured after 48 hrs by Western blot analysis; format: functional, cell-based; conditions: dose 2-6 µmol/L
HCT-116 [4] = assay: Activation of Hippo signaling pathway in human HCT-116 cells assessed as increase in YAP phosphorylation level at 2 to 6 micromol/L incubated for 48 hrs by Western blotting analysis; format: cell-based; conditions: dose 2-6 µmol/L
HCT-116 [5] = assay: Downregulation of YAP gene transcription in human HCT-116 cells at 6 micromol/L measured after 48 hrs by RT-qPCR analysis; format: functional, cell-based; conditions: dose 6.0 µmol/L
HCT-116 [6] = assay: Antiproliferative activity against human HCT-116 cells assessed as inhibition of cell growth at 2 to 6 micromol/L by MTT assay; format: functional, cell-based; conditions: dose 2-6 µmol/L, time 0-48 hrs, TDE = time-dependent effect
HCT-116 [7] = assay: Antiproliferative activity against human HCT-116 cells assessed as inhibition of cell growth measured upto 48 hrs by MTT assay; format: functional, cell-based; conditions: dose 2-6 µmol/L
HCT-116 [8] = assay: Inhibition of colony formation in human HCT-116 cells at 2 to 8 micromol/L measured daily for 7 days by crystal violet staining based analysis; format: functional, cell-based; conditions: dose 2-8 µmol/L, time 7.0 day
HCT-116 [9] = assay: Induction of cell cycle arrest in human HCT-116 cells assessed as increase in cells at G1 phase at 2 to 6 micromol/L measured after 48 hrs by PI staining based flow cytometry analysis relative to control; format: functional; conditions: dose 2-6 µmol/L, at 2 to 6 µM
HCT-116 [10] = assay: Induction of cell cycle arrest in human HCT-116 cells assessed as downregulation of CDK4 level at 2 to 6 micromol/L measured after 48 hrs by Western blot analysis; format: functional, cell-based; conditions: dose 2-6 µmol/L
HCT-116 [11] = assay: Induction of cell death in human HCT-116 cells at 2 to 6 micromol/L measured after 48 hrs by Annexin V-FITC/PI staining based flow cytometry analysis; format: functional; conditions: dose 2-6 µmol/L

Row | SMILES | IC50 (MGC-803) [µM] | IC50 (HCT-116 [1]) [µM] | IC50 (KYSE-450) [µM] | also measured
1 | C=CCc1ccc(O)c(-c2ccc3c(c2)C[C@@H](CSc2nnc(-c4ccc(OC)cc4)o2)O3)c1 | 39.7 | > 50 | > 50 | –
2 | C=CCc1ccc(O)c(-c2ccc3c(c2)C[C@@H](CSc2nnc(-c4ccc(C)cc4)o2)O3)c1 | 29.5 | 59.6 | > 50 | –
3 | C=CCc1ccc(O)c(-c2ccc3c(c2)C[C@@H](CSc2nnc(-c4ccccc4OC)o2)O3)c1 | > 50 | > 50 | > 50 | –
4 | C=CCc1ccc(O)c(-c2ccc3c(c2)C[C@@H](CSc2nnc(-c4cccnc4)o2)O3)c1 | 8.63 | 12.3 | > 50 | –
5 | C=CCc1ccc(O)c(-c2ccc3c(c2)C[C@@H](CSc2nnc(-c4ccccc4Cl)o2)O3)c1 | > 50 | > 50 | > 50 | –
6 | C=CCc1ccc(O)c(-c2ccc3c(c2)C[C@@H](CSc2nnc(-c4cccc(C)c4)o2)O3)c1 | 20.5 | > 50 | > 50 | –
7 | C=CCc1ccc(O)c(-c2ccc3c(c2)C[C@@H](CSc2nnc(-c4ccc([N+](=O)[O-])cc4)o2)O3)c1 | > 50 | 6.1 | > 50 | Activity (HCT-116 [2]): Active; Activity (HCT-116 [3]): Active; Activity (HCT-116 [4]): inactive; Activity (HCT-116 [5]): Active; Activity (HCT-116 [6]): Tde; Activity (HCT-116 [7]): Dose-Dependent Effect; inhibition (HCT-116 [8]): Active; Activity (HCT-116 [9]): >20%; Activity (HCT-116 [10]): Active; Activity (HCT-116 [11]): Active
8 | C=CCc1ccc(O)c(-c2ccc3c(c2)C[C@@H](CSc2nnc(-c4cccc(Cl)c4)o2)O3)c1 | 24.6 | 43.4 | > 50 | –
9 | C=CCc1ccc(O)c(-c2ccc3c(c2)C[C@@H](CSc2nnc(-c4ccncc4)o2)O3)c1 | 40.6 | > 50 | > 50 | –
10 | C=CCc1ccc(O)c(-c2ccc(O)c(CC=C)c2)c1 [HONOKIOL] | 11.8 | 17.2 | 32.4 | –
11 | C=CCc1ccc(O)c(-c2ccc3c(c2)C[C@@H](CSc2nnc(-c4ccc(Cl)cc4Cl)o2)O3)c1 | 21.5 | > 50 | > 50 | –
12 | C=CCc1ccc(O)c(-c2ccc3c(c2)C[C@@H](CSc2nnc(-c4ccc(C#N)cc4)o2)O3)c1 | > 50 | > 50 | > 50 | –
13 | C=CCc1ccc(O)c(-c2ccc3c(c2)C[C@@H](CSc2nnc(-c4ccc(Br)cc4)o2)O3)c1 | 44.6 | 52.2 | > 50 | –
14 | C=CCc1ccc(O)c(-c2ccc3c(c2)C[C@@H](CSc2nnc(-c4cccc(OC)c4)o2)O3)c1 | > 50 | > 50 | > 50 | –
15 | C=CCc1ccc(O)c(-c2ccc3c(c2)C[C@@H](CSc2nnc(-c4ccccc4Br)o2)O3)c1 | > 50 | > 50 | > 50 | –
16 | C=CCc1ccc(O)c(-c2ccc3c(c2)C[C@@H](CSc2nnc(-c4ccccc4C)o2)O3)c1 | 25.7 | 47.7 | > 50 | –
17 | C=CCc1ccc(O)c(-c2ccc3c(c2)C[C@@H](CSc2nnc(-c4ccccc4F)o2)O3)c1 | 16.2 | 20.1 | 38.7 | –
18 | C=CCc1ccc(O)c(-c2ccc3c(c2)C[C@@H](CSc2nnc(-c4ccc(Cl)cc4)o2)O3)c1 | 27 | 37.9 | > 50 | –
19 | C=CCc1ccc(O)c(-c2ccc3c(c2)C[C@@H](CSc2nnc(-c4cccc(F)c4)o2)O3)c1 | 23.8 | 29.4 | > 50 | –
20 | C=CCc1ccc(O)c(-c2ccc3c(c2)C[C@@H](CSc2nnc(-c4ccc(F)cc4Cl)o2)O3)c1 | 20.4 | > 50 | > 50 | –
21 | C=CCc1ccc(O)c(-c2ccc3c(c2)C[C@@H](CSc2nnc(-c4ccc(F)cc4)o2)O3)c1 | 25.1 | 27.4 | > 50 | –
22 | O=c1[nH]cc(F)c(=O)[nH]1 [FLUOROURACIL] | 3.88 | 9.63 | 32.6 | –
23 | C=CCc1ccc(O)c(-c2ccc3c(c2)C[C@@H](CSc2nnc(-c4ccccc4)o2)O3)c1 | 27.5 | 46.7 | > 50 | –
24 | C=CCc1ccc(O)c(-c2ccc3c(c2)C[C@@H](CSc2nnc(-c4cccc(Br)c4)o2)O3)c1 | 20.4 | 57.6 | > 50 | –
